conditions: not given

Structure (SMILES)	log10 Henry constant (atm·m³/mol)	log10 Koa	log10 vapour pressure (mmHg)	boiling point [°C]	melting point [°C]	ready biodegradability	log10 Koc (L/kg)
Clc1ccc(-c2cc(Cl)ccc2Cl)cc1	-3.72	7.92	-3.4				
CCCCCCCCCCCCCC(=O)OC			-3.31	295	19		
CC(C)=CCC[C@@H](C)CC=O				207			
Cc1cccc2c1Cc1ccccc1-2			-3.52		85		
C[C@]12C[C@H]3S[C@H]3C[C@@H]1CC[C@@H]1[C@@H]2CC[C@]2(C)[C@@H](O)CC[C@@H]12					127		
CCCCCCCCCCCC(CCCCCCCC)c1ccccc1 (stereo not drawn)					17.9		
O=C1C=CC2(CCC23C=CC(=O)O3)O1 (stereo not drawn)					158		
C#CCOC(=O)/C=C(C)/C=C/CC(C)CCCC(C)C (stereo not drawn)			-5.14				
COc1ccc(C(=O)NCc2cccnc2)cc1C(=O)NCc1cccnc1					124		
O=C(Nc1ccc(Cl)cc1)Nc1ccc(Cl)c(C(F)(F)F)c1					214		
c1cncnc1				124	22	not readily biodegradable	
Oc1ccc2ccc(O)cc2c1					193		
CCCCCCCCCCCCCCCC#N				333	31		
CC(C)CCCC(C)N (stereo not drawn)				155			
O=C(O)C1(O)c2ccccc2-c2ccc(Cl)cc21 (stereo not drawn)					152		
COC1CCC=CO1 (stereo not drawn)			1.04	118	16		
CC1CCCSC1 (stereo not drawn)				158	-60		
C[N+](C)(C)CCOC(Cc1ccccc1)c1ccccc1.[Br-] (stereo not drawn)					146		
IC(I)I				218	119		
FC(F)(F)C(F)(F)C(F)(F)C(F)(F)C(F)(F)C(F)(F)F			2.34	56.6	-87.1		
CCCC(C)(C)CC(C)C				151			
FC(C(F)(F)F)C(F)(F)F			3.53	-17.3	-127		
Cc1cnc(C)o1				118			

Structure (SMILES)	log10 Henry constant (atm·m³/mol)	log10 Koa	log10 vapour pressure (mmHg)	boiling point [°C]	melting point [°C]	ready biodegradability	log10 Koc (L/kg)
O=C(Oc1ccccc1)Oc1ccccc1			-3.82	306	83		
CCOC(=O)c1cc2ccccc2[nH]1					124		
CC(C)OC(C)(C)C				87.6	-88		
C=CCOCC1CO1 (stereo not drawn)				154			
COC(=O)N/N=C/c1c[n+]([O-])c2ccccc2[n+]1[O-]					240		
CCC(C)CC			2.28	63.2	-163		
CCN(CC)C(=O)c1cccc(C)c1			-2.7	290	-45	not readily biodegradable	
C[Si](Cl)(Cl)C(Cl)Cl				149			
CCCS(=O)(=O)O					7.5		
Cc1cc(Cl)ccc1OCC(=O)O			-5.23	287	120	not readily biodegradable	1.73
Cc1ccc(C(=O)O)c(C)c1				268	90		
Cc1cc(O)cc(O)c1C				284	136		
Clc1ccc(C(Cl)(Cl)Cl)c(Cl)c1						not readily biodegradable	
Nc1ccc2cc(S(=O)(=O)O)cc(O)c2c1						not readily biodegradable	
CC[N+](CC)(CC)CCC(O)(c1ccccc1)C1CCCCC1.[I-] (stereo not drawn)					182		
CCOC(=O)c1c(Cl)c(Cl)c(Cl)c(Cl)c1C(=O)O					94.5		
CC/C(=C(/CC)c1ccc(OC)cc1)c1ccc(OC)cc1					124		
Cc1cc(C)cc(NC(=O)N(C)C)c1							1.73
Cc1ccc(O)c(N=Nc2ccccc2)c1					108		
C=C(C)C(=O)CC				118	-69.5		
CCCC=CCO				157			
Clc1ccc(-c2c(Cl)c(Cl)c(Cl)c(Cl)c2Cl)c(Cl)c1Cl	-4.96						
CCC(CC)C(=O)OC				137			

Structure (SMILES)	log10 Henry constant (atm·m³/mol)	log10 Koa	log10 vapour pressure (mmHg)	boiling point [°C]	melting point [°C]	ready biodegradability	log10 Koc (L/kg)
Cc1c[nH]c2ccccc12			-2.26	266	97.5		
CCCCCCCCCCCC1=C(O)C(=O)C=C(O)C1=O					142		
CC[C@@H](O)[C@@H]1CCCCN1				226	121		
CC(=O)c1ccc(-n2ccnc2)cc1						readily biodegradable	
CCC(C(=O)O)c1ccc(-c2ccccc2)cc1 (stereo not drawn)					124		
CCN(CC)C(=O)N(CC)CC				209			
Cc1cc(Cl)c(O)c(Cl)c1				231	39		
CCCCC1CCCCC1			0.119	181	-74.7		
C=CCNC(N)=O					85		
FC(F)(F)Oc1ccccc1				102	-50		
O=C1C=CCC1				136			
c1cn[nH]n1				204	23		
CC1=C(C)CCC1				106	-90.4		
OCCc1ccccc1	-6.59		-1.06	218	-27	readily biodegradable	1.5
Clc1cc2ccc(Cl)c(Cl)c2cc1Cl		8.34					
NC(=O)COc1ccccc1					102		
C1CCN(SSN2CCCCC2)CC1					64.2		
C1=CC2C=CC1C2				89.5	-19.1		
CC(C)C=CCl				87			
Sc1ccccc1			0.286	169	-14.9	not readily biodegradable	
CC(C)CS(=O)(=O)CC(C)C				265	17		
CCC/C=C/C=O				146			
Nc1nc(F)nc2c1ncn2[C@@H]1O[C@H](CO)[C@@H](O)[C@@H]1O					260		

Structure (SMILES)	log10 Henry constant (atm·m³/mol)	log10 Koa	log10 vapour pressure (mmHg)	boiling point [°C]	melting point [°C]	ready biodegradability	log10 Koc (L/kg)
CN(C)c1ccccn1				196	182		
FC1CCCCC1				101	13		
OCCOc1cccc2ccccc12					45		
CC1(c2ccccc2)OC(C(=O)O)=CC1=O (stereo not drawn)					176		
C#CC(O)(CC)CC				138			
CC(C)OC(=O)c1ccco1				198			
CCCCCCCC/C=C\CCCCCCCC(=O)[O-].[Na+]					234		
O=C(OC(=O)C(F)(F)C(F)(F)C(F)(F)F)C(F)(F)C(F)(F)C(F)(F)F				106	-43		
Cc1ccc(Cl)c(O)c1				213	50.8	not readily biodegradable	
Nc1ccc2cc3ccc(N)cc3nc2c1					285		
Clc1cc2c(c(Cl)c1Cl)Oc1c(cc(Cl)c(Cl)c1Cl)O2		11	-10.3		243		
c1ccc2c(c1)cc1c3ccccc3c3cccc4ccc2c1c43					234		
CCCCN	-4.76	3.61	1.97	78	-50	readily biodegradable	1.88
O=C(Nc1ccccc1)NC1CCCCC1							2.07
C=C1CC[C@@]2(O)[C@H]3Cc4ccc(O)c5c4[C@@]2(CCN3CC2CC2)[C@H]1O5					189		
CC(Cc1ccc(O)c(O)c1)C(C)Cc1ccc(O)c(O)c1 (stereo not drawn)					186		
O=C(O)c1cc(Br)ccc1Br					157		
ClCCOc1ccccc1				218	28		
COc1cc2c(cc1OC)C1CC(=O)C(CC(C)C)CN1CC2 (stereo not drawn)					128		
C=CCOCCC			1.78	91			

same assay, conditions: fish

Structure (SMILES)	log10 BCF	log10 biotransformation half-life (days)
Clc1ccc(-c2cc(Cl)ccc2Cl)cc1	4.13	1.91
Clc1cc(Cl)c(Cl)c(-c2cccc(Cl)c2Cl)c1		2.44
CCN(CC)C(=O)c1cccc(C)c1	0.38	
Nc1ccc2cc(S(=O)(=O)O)cc(O)c2c1	0.61	
Clc1ccc(-c2c(Cl)c(Cl)c(Cl)c(Cl)c2Cl)c(Cl)c1Cl		2.54
Cc1ccc(Cl)c(O)c1	0.67	
Clc1cc2c(c(Cl)c1Cl)Oc1c(cc(Cl)c(Cl)c1Cl)O2	3.92	1.3
